Data set [1] concerns caspase-3/7. Kind of data set: Caspase-3/7 activation assay (ApoONE kit) in HepG-2 cells. The format is cell-based, human. The conditions noted are these: HepG-2 cells treated with IC50 doses; relative to untreated cells; mean ± SEM. The procedure:
(§1) ApoONE® Caspase-3/7 kit was used following the manufacturer’s instructions (Supplementary data).
(§2) 5.2. Caspase-3/7 activation assay
(§3) The caspase 3/7 activation was assessed, as a key indicator in caspase-dependent apoptosis, using ApoONE® Caspase-3/7 kit following the manufacturer’s instructions. This kit used a nonfluorescence substrate […]
(§4) the generation of the fluorescence signals of Rhodamine 110. Thesesignal were measured at 490 nm excitation and 520 nm emission using the fluorescence microplate reader (BMG LabTech, Germany). […]

For data set [2], the system named is HepG-2 cells. In words: MTT cytotoxicity assay, liver cancer cells. The format is cell-based, human. The conditions noted are these: for IC50: Homo sapiens, HepG2; for HepG-2 SI: ratio of IC50 against normal cells (Wi-38) to IC50 against HepG-2; for Morphological alterations of treated HepG-2 cells: microscopic examination after 72 h, compared to untreated and 5-FU-treated cells. The protocol:
(§5) Wi-38, Caco-2 and HepG-2 cells were cultured in DMEM medium-contained 10% FBS, seeded as 5 × 10^3 cells per well in 96-well cell culture plate and incubated at 37 °C in 5% CO2 incubator. After 24 h, serial concentrations of the test compounds were incubated with cells for 72 h. Cell viability was assayed via MTT protocol[27] (Supplementary data). IC50 values of the synthesized compounds were measured via the Graphpad Instat software. Morphological changes were examined using phase contrast inverted microscope with a digital camera (Olympus, Japan). […]
(§6) Normal human lung fibroblast Wi-38 cell line was used to detect cytotoxicity of the studied compounds.
(§7) Wi-38 cell line was cultured in DMEM medium-contained 10% fetal bovine serum (FBS), seeded as 5x10^3 cells per well in 96-well cell culture plate and incubated at 37 °C in 5% CO2 incubator. After 24 h for cell attachment, serial concentrations of the synthetic compounds and standard chemotherapy (5-fluorouracil) were incubated with Wi-38 cells for 72 h. Cell viability was assayed by MTT method Twenty microliters of 5 mg/ml MTT (Sigma, USA) was added to each well and the plate was incubated at 37 °C for 3 h. Then MTT solution was removed, 100 µl DMSO was added, and the absorbance of each well was measured with a microplate reader (BMG LabTech, Germany) at 570 nm. The dose (EC50 and EC100) values (at 50% and100% cell viability, respectively) of the tested compounds was estimated by the Graphpad Instat software.
(§8) The anticancer effect of the above-mentioned compounds was assayed using human colon cancer cell line (Caco-2) and liver cancer cell line (HepG-2) that were cultured in DMEM (Lonza, USA) supplemented with 10%
(§9) FBS. All cancer cells (5x10^3 cells/well) were seeded in sterile 96-well plates. After 24h, serial concentrations of the tested compounds and 5-fluorouracil (Fu) were incubated with two cancer cell lines for 72 h at 37 °C in 5% CO2 incubator. MTT method was done as described above. The half maximal inhibitory concentration (IC50) values were calculated using the Graphpad Instat software. Furthermore, cellular morphological changes before […]
(§10) contrast inverted microscope with a digital camera (Olympus, Japan).
In general terms: Tetrazolium dyes change colour on reduction, which living cells bring about.

The subject of data set [3] is Caco-2 cells. Kind of data set: MTT cytotoxicity assay, colorectal cancer cells. The format is cell-based, human. The conditions noted are these: for IC50: Homo sapiens; for Caco-2 SI: ratio of IC50 against normal cells (Wi-38) to IC50 against Caco-2; for SI against the screened cell lines: Caco-2 and HepG-2 cells versus Wi-38; for Caco-2 LE: LE = 1.37 (pIC50)/NHA; for Caco-2 LLE: LLE = pIC50–cLog P; for Morphological alterations of treated Caco-2 cells: microscopic examination after 72 h, compared to untreated and 5-FU-treated cells. The procedure: as §5, §6, §7, §8, §9, §10

The next data set deals with Bcl2. Kind of data set: RT-qPCR of Bcl2 expression in Caco-2 cells. The format is cell-based, human. The conditions noted are these: 0.06 µM for 72 h, mean ± SEM. The procedure:
RNAs of untreated and treated cancer cells were extracted using Gene JET RNA purification kit (Thermo Scientific, USA). Then cDNAs were synthesized using cDNA Synthesis Kit (Thermo Scientific, USA). Real time PCR was performed using SYBR green master mix and specific primers (Forward/Reverse) as detailed in the supplementary data. […]
5.3. Real-time Quantitative PCR Analysis of Bcl2 […]
µM, for 72 h in 5% CO2 incubator. RNAs of untreated and treated cancer cells were extracted using Gene JET RNA purification kit (Thermo Scientific, USA). Then cDNAs were synthesized using cDNA Synthesis Kit (Thermo Scientific, USA). Real time PCR was performed using SYBR green master mix and specific primers […]
The thermal cycling parameters were pre-denaturation, followed by 40 amplification cycles of 1 min at 95°C and 30 s at 60 °C and at 72°C for 30 sec. GAPDH mRNA was quantified to adjust the amount of mRNA in each sample. The 2−ΔΔCT equation was used to estimate change in gene expressions before and after treatment of cancer cells.
Table 1 primer sequences of the used genes
(In general: In qPCR the cycle at which signal appears reflects the starting amount.)

Data set [4] deals with caspase-3/7. In words: Caspase-3/7 activation assay (ApoONE kit) in Caco-2 cells. The format is cell-based, human. The conditions noted are these: Caco-2 cells treated with IC50 doses; relative to untreated cells; mean ± SEM. The protocol: as §1, §2, §3, §4
Data set [5] concerns Wi-38 cells. In words: MTT cytotoxicity assay, normal human fibroblasts. The conditions noted are these: 72 h, mean ± SEM; for MNTC: dose at 100% cell viability, read-out: Wi-38 EC100. The format is cell-based. The protocol: as §5, §6
as §7, with “software. […]” for “software.”

Data set [6] deals with Caco-2 cells. In words: Flow cytometric analysis of apoptosis (annexin V/PI). The format is cell-based, human. The conditions noted are these: IC50 doses, 72 h, annexin-stained, mean ± SEM. The procedure:
Reverse: 5′-[…]-3′
5.4. Flow cytometric analysis of apoptosis […]
human colon cancer cell line (Caco-2) for 72 h, at their minimum IC50 doses. After trypsinization, the untreated and treated cancer cells were stained with fluorescein isothiocyanate (FITC)-annexin V/ propidium iodide (PI) for 15 min. After washing with PBS, the annexin-stained apoptotic population was quantified using flow cytometry at FITC signal detector (FL1) against the phycoerythrin emission signal detector (FL2).
Background: A flow cytometer gives signals particle by particle.

For data set [7], the system named is Wi-38 cells. Set-up: method as in PMID 30826510. The conditions noted are these: MTT; previously studied nitro lead; cited from earlier work.
Data set [8] concerns HepG-2 cells. Also on record: method as in PMID 30826510. Particulars: previously studied nitro lead, cited from earlier work.
Setting [9] is: MTT, 72 h, mean ± SEM, read-out: HepG-2 IC50.
The mark [10] stands for this setting: Caco-2, MTT, 72 h, mean ± SEM, read-out: Caco-2 IC50 (converted).
[11] abbreviates: read-out: HepG-2 pIC50 (converted).
[12] abbreviates: Caco-2, -log (IC50), molar, read-out: Caco-2 IC50 (converted).
Where [13] appears, read: Caco-2 and HepG-2 cells, MTT, read-out: IC50 against the screened cell lines.

SMILES strings stand for the structures. Values joined by “and” are separate entries in the source; they are usually repeats but may differ in a detail not shown here. Equal values may be shown once. Read-outs that look alike come from different tables or passages of the source.

Regarding `O=c1[nH]cc(F)c(=O)[nH]1` [5-FU, 5-fluorouracil, reference compound], the “Relative fold increment in caspase 3/7 activity, HepG-2” value (“Relative fold increment … HepG-2” for short) in the data set on caspase-3/7 [1] is on record as 1.001 ± 0.001 fold. For the same molecule, the IC50 with HepG-2 cells [2] (setting [9]) was 1610 ± 28 nM; with Caco-2 cells [3] (setting [10]), 865 ± 39 nM; with Wi-38 cells [5] it was 1990 ± 135 nM. The “HepG-2 SI” value with HepG-2 cells [2] worked out at 1.233. For the same molecule, the “Caco-2 SI” value in the data set on Caco-2 cells [3] was determined as 2.301. Also, the “Bcl2 gene relative fold change” value with Bcl2 is listed as 0.948 ± 0.027 fold. For the same molecule, the “Relative fold increment in caspase 3/7 activity, Caco-2” value (shortened to “Relative fold increment … Caco-2”) in the data set with caspase-3/7 [4] is listed as 1.016 ± 0.009 fold. In the data set with Wi-38 cells [5], the MNTC came to 840 ± 55 nM.

Take `CCOC(=O)c1ccc(NC(=O)C2(OC(=O)Cc3c[nH]c4ccccc34)CCCCC2)cc1` [7a, Ethyl-4-(1-(2-(1H-indol-3-yl)acetoxy)cyclohexanecarboxamido)benzoate]: the “Relative fold increment … HepG-2” value in the data set on caspase-3/7 [1] was found to be 2.938 ± 0.063 fold. Besides, the IC50 with HepG-2 cells [2] (setting [9]) was found to be 115 ± 16 nM. For the same molecule, the IC50 in the data set on HepG-2 cells [2] (setting [11]) was 115 nM. Further, in the data set on HepG-2 cells [2], the “Morphological alterations of treated HepG-2 cells” value was “severe shrinkage and morphological alterations”; the “HepG-2 SI” value was found to be 97.347. In the data set with Caco-2 cells [3], the “SI against the screened cell lines” value is given as 97–243; the “Caco-2 LE” value is given as 0.292; the “Caco-2 LLE” value came to 4.025; the “Morphological alterations of treated Caco-2 cells” value is “severe shrinkage and morphological alterations”. For the same molecule, the “Caco-2 SI” value with Caco-2 cells [3] turned out to be 127.215. Further, in the data set with Caco-2 cells [3] (setting [12]), the IC50 is 88.1 nM. Further, the IC50 in the data set on Caco-2 cells [3] (setting [10]) is 88 ± 10 nM. In addition, the IC50 in the data set on Caco-2 cells [3] (setting [13]) lay in the range of 70 to 120 nM. Further, the “% Apoptosis (total apoptotic cell population)” value (“% Apoptosis” below) in the data set on Caco-2 cells [6] was 50.9% and 50.905 ± 5.975%. For the same molecule, the “Bcl2 gene relative fold change” value in the data set on Bcl2 was 0.471 ± 0.051 fold. In the data set with caspase-3/7 [4], the “Relative fold increment … Caco-2” value was 3.086 ± 0.038 fold. Further, in the data set on Wi-38 cells [5], the MNTC amounted to 2980 ± 640 nM and the IC50 was determined as 11200 ± 3750 nM.

Consider `CCOC(=O)c1ccc(NC(=O)C2(OC(=O)Cc3ccccc3)CCCCC2)cc1` [7g, Ethyl-4-(1-(2-phenylacetoxy)cyclohexanecarboxamido)benzoate], for which the “Relative fold increment … HepG-2” value with caspase-3/7 [1] came out at 4.118 ± 0.083 fold. Moreover, in the data set with HepG-2 cells [2] (setting [9]), the IC50 is 65 ± 4 nM. For the same molecule, the IC50 in the data set with HepG-2 cells [2] (setting [11]) was 65 nM. For the same molecule, in the data set with HepG-2 cells [2], the “Morphological alterations of treated HepG-2 cells” value is “severe shrinkage and morphological alterations”; the “HepG-2 SI” value was 262.723. Moreover, in the data set with Caco-2 cells [3], the “SI against the screened cell lines” value is 262–266; the “Caco-2 LE” value amounted to 0.328; the “Caco-2 LLE” value is given as 3.453; the “Morphological alterations of treated Caco-2 cells” value was “severe shrinkage and morphological alterations”. In addition, the “Caco-2 SI” value with Caco-2 cells [3] is reported as 266.828. Moreover, the IC50 in the data set on Caco-2 cells [3] (setting [12]) was 64.1 nM. The IC50 with Caco-2 cells [3] (setting [10]) is 64 ± 6 nM. Besides, in the data set with Caco-2 cells [3] (setting [13]), the IC50 was 60 nM. The “% Apoptosis” value with Caco-2 cells [6] was 58.7% and 58.730 ± 2.930%. Also, in the data set with Bcl2, the “Bcl2 gene relative fold change” value was determined as 0.087 ± 0.009 fold. Further, in the data set on Wi-38 cells [5], the MNTC amounted to 1300 ± 105 nM and the IC50 worked out at 17100 ± 2150 nM.

Take `CCOC(=O)c1ccc(NC(=O)C2(OC(=O)[C@H](Cc3ccccc3)NC(=O)Oc3ccccc3)CCCCC2)cc1` [7j, Ethyl-4-(1-((2-((phenoxycarbonyl)amino)-3-phenylpropanoyl)oxy)cyclohexanecarboxamido) benzoate]: the “Relative fold increment … HepG-2” value in the data set on caspase-3/7 [1] turned out to be 2.960 ± 0.065 fold. Moreover, the IC50 in the data set with HepG-2 cells [2] (setting [9]) stood at 87 ± 7 nM. Besides, the IC50 with HepG-2 cells [2] (setting [11]) is 87.1 nM. In the data set with HepG-2 cells [2], the “Morphological alterations of treated HepG-2 cells” value is “severe shrinkage and morphological alterations”; the “HepG-2 SI” value turned out to be 192.689. In addition, in the data set on Caco-2 cells [3], the “SI against the screened cell lines” value was 97–243; the “Caco-2 LE” value came out at 0.239; the “Caco-2 LLE” value was 3.461; the “Morphological alterations of treated Caco-2 cells” value is “severe shrinkage and morphological alterations”. In addition, the “Caco-2 SI” value in the data set on Caco-2 cells [3] is recorded as 242.956. In the data set with Caco-2 cells [3] (setting [12]), the IC50 is 69 nM. Besides, the IC50 in the data set with Caco-2 cells [3] (setting [10]) was 69 ± 6 nM. For the same molecule, the IC50 with Caco-2 cells [3] (setting [13]) is 70 to 120 nM. In the data set on Caco-2 cells [6], the “% Apoptosis” value is 52.6% and 52.650 ± 5.310%. Moreover, the “Bcl2 gene relative fold change” value in the data set on Bcl2 was 0.127 ± 0.009 fold. Moreover, the “Relative fold increment … Caco-2” value in the data set with caspase-3/7 [4] is 3.586 ± 0.098 fold. Moreover, in the data set on Wi-38 cells [5], the MNTC amounted to 1770 ± 694 nM and the IC50 turned out to be 16800 ± 637 nM.

Turning to `O=C(Cc1ccccc1)OC1(C(=O)Nc2ccc([N+](=O)[O-])cc2)CCCCC1` [V], the results for the IC50 in the data set on Wi-38 cells [7] and in the data set on HepG-2 cells [8] (MTT) were 44 nM and 14 nM, respectively. In the data set with HepG-2 cells [8] (Wi-38 vs HepG-2), the “SI (HepG-2)” value was 3.091.

The values are drawn from PMC9794698, “Structure optimization of new tumor-selective Passerini α-acyloxy carboxamides as Caspase-3/7 activators” (Scientific Reports, 2022).
